Earlier results as cited in patent publication US8952001B2, “Amino-heteroaryl derivatives as HCN blockers” (Merck Sharp & Dohme Corp., priority 2009, dated 2015).
Like-named read-outs stand apart in the source and are kept apart here.

What was measured:
[1] = test system: ectopic discharges in A-beta and A-delta fibres; conditions: without causing conduction block
mechanical allodynia [2] = conditions: intraperitoneal administration; Chung/von Frey
allodynia = conditions: rat CFA model of inflammatory pain
spontaneous pain = conditions: rat, mild thermal injury model
mechanical allodynia [3] = conditions: local administration to the sciatic nerve 4 h after surgery in rats; Brennan model
[4] = test system: nerve injured myelinated DRG

CCN(c1ccccc1)c1cc(=NC)n(C)c(C)n1.Cl [ZD 7288]
firing frequency of ectopic discharges [1]: reduced the firing frequency of ectopic discharges
mechanical allodynia (mechanical allodynia [2]): dose-dependently reverses mechanical allodynia
allodynia (allodynia): suppresses allodynia
spontaneous pain (spontaneous pain): blocks spontaneous pain
mechanical allodynia (mechanical allodynia [3]): attenuates mechanical allodynia
spontaneous activity [4]: reduces spontaneous activity
